# Patent US9808470B2, “Estrogenic components for use in the treatment of neurological disorders” (UNIVERSITE DE LIEGE, priority 2012, dated 2017)
# What was measured:
# Type in all cases: in vivo
# [1] = system: intact cells in hippocampus and cortex; experiment: Ex.4 therapeutic HIE rat model: intact cell counting
# Procedure: Paraformaldehyde-fixed paraffin embedded samples of the removed brains were coronally sectioned at the same level of the hippocampus region in accordance to the Paxinos rat brain atlas (Paxinos and Watson 2007. In: The rat brain in stereotaxic coordinates, 6th edition). Thickness of sections was 5 μm. Hematoxylin-eosin staining was performed. Briefly, sections were deparaffinized in xylene and rehydrated in graded ethanol concentrations before staining. Slides were stained with hematoxylin, rinsed for a few seconds in water, then placed in 1% eosin and washed, dehydrated, and coverslipped.
# Intact cell counting was performed on hematoxylin-eosin-stained sections of the rat pups brains at magnification 400× in 3 fields of the respective brain area. Countings were performed in cortex and hippocampus (regions: dentate gyrus (DG), subgranular zone (SGZ), cornu ammonis (CA1, CA2/CA3)). The sections were analyzed with the aid of a microscope (Olympus BX51, Olympus, Tokyo, Japan), an image scanner (DotSlide Digital Virtual Microscopy, Olympus, Germany) and ImageJ software (NIH, US).
# Intact cells are uninjured. Injured cells are characterized by a pale eosinophilic staining along with non-uniform nuclear densities-shrunken, condensed, or pale and enlarged.
# (§1) To study the therapeutic effect of estetrol, newborn rat pups were assigned to one of the following 6 groups at postnatal day 7: sham group (n=29), vehicle group (n=20), 1 mg/kg E4 group (n=16), 5 mg/kg E4 group (n=19), 10 mg/kg day E4 (n=17) and 50 mg/kg day E4 group (n=15). At postnatal day 7 animals were anesthetized with isoflurane (induction, 3.0%; maintenance, 1.5%), and the rat pups from vehicle and E4 groups passed through surgery encompassing left common carotid artery double ligation and cut. After surgery, the pups were returned to their dams and allowed to recover for 1 hour. The pups were then placed in a humidified hypoxic in vivo cabinet (CoyLab). Hypoxia was produced by the inhalation of 11%-8% of oxygen balanced by nitrogen at decreased concentration of oxygen for 20 minutes, followed by inhalation of 8% oxygen and 92% nitrogen at constant concentration for 35 minutes. All the manipulations were performed at 37° C.
# (§2) Upon retrieval from the hypoxia chamber the rat pups were injected intraperitoneally either by vehicle (vehicle group) or by E4 (1 mg/kg, 5 mg/kg, 10 mg/kg or 50 mg/kg) in accordance to the group assignment. The animals from the sham group went through similar procedures but proceeded neither left common carotid artery ligation and cut followed by hypoxia nor vehicle or estetrol administration. Rat pups recovered with their dams until being sacrificed at postnatal day 14.
# S100B = experiment: Ex.4 therapeutic HIE rat model: blood serum S100B ELISA; conditions: estetrol treated animals (1, 5, 10, 50 mg/kg single ip dose after HI); PND14; vs vehicle
# Procedure: Blood was withdrawn, centrifuged and the serum samples were stored at −80° C.
# ELISAs for detecting the brain damage markers S100B protein (Catalog# CSB-E08066r, Cusabio Biotech Co., LTD, China), and glial fibrillary acidic protein (GFAP) (Catalog# E90068Ra, Uscn Life sciences Inc., China) in blood serum samples were performed according to the manufacturers' recommendations.
# as §1, with “C. […]” for “C.”
# [2] = Ex.2 neonatal HIE rat model, pre-treatment: body weight
# Procedure: Sprague-Dawley pregnant rats were obtained from Janvier (France). After delivery newborn rat pups were housed with their dams and reared normally at room temperature (25° C.) under a 12-hour light-dark cycle. All experimental protocols were approved by the University of Liege Ethical Committee. All efforts were made to minimize animal suffering.
# Estetrol (E4) was dissolved in saline solution at different concentrations and an equal volume (5 μl/g) of the solution was injected intraperitoneally into the pups from the E4 group(s). Rat pups from the Vehicle group were intraperitoneally injected a saline solution. Rat pups from the Sham group were not injected at all.
# Ischemia was produced by surgery encompassing left common carotid artery double ligation and cut; hypoxia was produced by the inhalation of 11%-8% of oxygen balanced by nitrogen at decreased concentration of oxygen for 20 minutes, followed by inhalation of 8% oxygen and 92% nitrogen at constant concentration for 35 minutes.
# After delivery, newborn rat pups were assigned to one of the following 4 groups: Sham group, Vehicle group, E4 5 mg/kg/per day group and E4 50 mg/kg/per day group. From day 4 to day 7 inclusive, rat pups were injected intraperitoneally either vehicle (Vehicle group) or E4 (5 mg/kg or 50 mg/kg in accordance to the group assignment) or not injected at all (Sham group). At day 7, 30 minutes after last injection, animals from Vehicle and E4 (5 mg/kg or 50 mg/kg) groups passed through surgery encompassing left common carotid artery double ligation and cut, followed by hypoxia produced by the inhalation of 11%-8% of oxygen balanced by nitrogen at decreased concentration for 20 minutes, followed by inhalation of 8% oxygen and 92% nitrogen at constant concentration for 35 minutes. The Sham group went through similar procedures without left common carotid artery ligation and hypoxia. All the manipulations were performed at 37° C. Rat pups recovered with their dams until being sacrificed at postnatal day 14. […]
# [3] = Ex.4 therapeutic HIE rat model: brain weight; conditions: PND14
# Procedure: Animals were then perfused transcardially with 0.9% saline solution at 4° C., and then with 4% paraformaldehyde in a 0.1-mol/L phosphate-buffered saline solution (pH 7.4) at 4° C. The brains were quickly isolated, weighed and immersed in the same fixative solution at 4° C. for 24 hours, dehydrated with a graded series of ethanol and xylene, and embedded in paraffin.
# as §1, §2
smiles,measurement,setting,value
"C[C@]12CC[C@@H]3c4ccc(O)cc4CC[C@H]3[C@@H]1[C@@H](O)[C@@H](O)[C@@H]2O [E4, 1,3,5(10)-estratrien-3,15α,16α,17β-tetrol]",number of intact cells per visual field,"[1]; 1 mg/kg E4 single ip dose after HI, CA1",51.5±2.5
same,number of intact cells per visual field,"[1]; 1 mg/kg E4 single ip dose after HI, CA2/CA3",33.9±4.306
same,number of intact cells per visual field,"[1]; 1 mg/kg E4 single ip dose after HI, cortex",42.4±4.865
same,number of intact cells per visual field,"[1]; 5 mg/kg E4 single ip dose after HI, CA1",45.3±2.989
same,number of intact cells per visual field,"[1]; 5 mg/kg E4 single ip dose after HI, CA2/CA3",33.8±4.704
same,number of intact cells per visual field,"[1]; 5 mg/kg E4 single ip dose after HI, cortex",57.1±7.012
same,number of intact cells per visual field,"[1]; 10 mg/kg E4 single ip dose after HI, CA1",46.0±3.19
same,number of intact cells per visual field,"[1]; 10 mg/kg E4 single ip dose after HI, CA2/CA3",35.2±3.169
same,number of intact cells per visual field,"[1]; 10 mg/kg E4 single ip dose after HI, cortex",56.9±5.958
same,number of intact cells per visual field,"[1]; 50 mg/kg E4 single ip dose after HI, CA1",46.6±5.336
same,number of intact cells per visual field,"[1]; 50 mg/kg E4 single ip dose after HI, CA2/CA3",30.5±2.527
same,number of intact cells per visual field,"[1]; 50 mg/kg E4 single ip dose after HI, cortex",54.5±3.403
same,expression of S100B protein in blood serum,S100B,significantly lower expression
same,body weight,"[2]; E4 5 mg/kg ip day 4-7 before HI, day 8, vs Sham",sham operated group had significantly higher body weight
same,body weight,"[2]; E4 5 mg/kg ip day 4-7 before HI, post-operative days 13 and 14, vs vehicle",significantly higher body weight than vehicle treated animals
same,body weight,"[2]; E4 50 mg/kg ip day 4-7 before HI, day 10, vs Sham",sham operated group had significantly higher body weight
same,brain weight,[3]; 1 mg/kg E4 single ip dose after HI,1.099 ± 0.037 g
same,brain weight,[3]; 5 mg/kg E4 single ip dose after HI,1.06 ± 0.035 g
same,brain weight,[3]; 10 mg/kg E4 single ip dose after HI,1.12 ± 0.33 g
same,brain weight,[3]; 50 mg/kg E4 single ip dose after HI,1.163 ± 0.025 g
